Assay [1] concerns the target T1, PPARG/RXRA LBD heterodimer (Homo sapiens, UniProt P37231).
T1 construct: His-TEV-Q203-Y477; Uniprot ID P37231-2; made in house; host or cells: E. coli
Put plainly: PPARγ-NCOR1 recruitment assay (TR-FRET, biotinylated NCOR1 ID2 peptide). The assay is classed as biochemical. The conditions noted are these: 80 nM Rosiglitazone, 3 hours, read-out: PPARG-NCOR recruitment assay EC50. As for the experimental part: PPARγ-NCOR1 Recruitment Assay:
Compound potency (EC50) and maximal extent of NCOR1 recruitment to PPARG were assessed a TR-FRET binding assay measuring association of a biotinylated NCOR1 ID2 peptide (Biotin-[…]-amide) to PPARG/RXRA LBD heterodimer. Specifically, a 20 microliters of TR-FRET master mix consisting of 2 nM WT PPARG LBD (E. coli expressed, His-TEV-Q203-Y477; Uniprot ID P37231-2), 2 nM WT RXRA LBD or mutant S427F RXRA LBD (E. coli expressed, Flag-TEV-E228-T462; […]. Mixtures were incubated for 3 hours and read in an EnVision plate reader (Perkin Elmer) with Ex/Em 615/665. To determine the potency (EC50) and extent of NCOR1 recruitment, TR-FRET ratios were normalized to the average ratio of DMSO control wells (0%) and to the average maximum ratio for positive control compound (T0070907 (2-chloro-5-nitro-N-4-pyridinyl-benzamide); defined as 100%) in CDD Vault and analyzed using the Levenberg-Marquardt algorithm.
(In TR-FRET formats the signal depends on donor and acceptor labels being close together.)
T1 sequence (O75376 2251-2273 partner, one chain of several): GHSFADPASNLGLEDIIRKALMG

Assay [2] addresses T2, PPARG/RXRA LBD heterodimer (Homo sapiens, UniProt P37231).
T2 construct: His-TEV-Q203-Y477; Uniprot ID P37231-2; made in house; host or cells: E. coli
T2 sequence (P37231 203-477 isoform P37231-2): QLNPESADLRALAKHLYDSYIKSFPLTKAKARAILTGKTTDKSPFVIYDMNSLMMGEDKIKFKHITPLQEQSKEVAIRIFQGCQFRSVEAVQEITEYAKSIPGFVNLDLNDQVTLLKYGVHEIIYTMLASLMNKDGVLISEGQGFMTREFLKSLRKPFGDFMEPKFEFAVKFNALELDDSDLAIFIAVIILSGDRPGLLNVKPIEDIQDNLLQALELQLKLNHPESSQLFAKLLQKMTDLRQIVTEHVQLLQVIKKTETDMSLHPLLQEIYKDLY
T2 sequence (P19793 228-462 partner limits assumed): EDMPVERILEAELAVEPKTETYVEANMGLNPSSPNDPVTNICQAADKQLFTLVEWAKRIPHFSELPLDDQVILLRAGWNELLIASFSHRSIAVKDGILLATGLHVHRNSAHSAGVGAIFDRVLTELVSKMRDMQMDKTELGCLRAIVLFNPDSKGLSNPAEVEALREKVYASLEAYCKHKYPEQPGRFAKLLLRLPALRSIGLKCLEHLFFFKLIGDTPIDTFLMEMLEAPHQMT
In words: PPARγ-MED1 blockade assay (TR-FRET, biotinylated MED1 LxxLL peptide). The settings on record: WT PPARG LBD/WT RXRA LBD, 80 nM Rosiglitazone, 3 hours. The assay is classed as biochemical. As for the experimental part:
PPARγ-MED1 Blockade Assay:
Compound potency (IC50) and maximal extent of MED1 repulsion to PPARG were assessed a TR-FRET binding assay measuring association of a biotinylated MED1 LxxLL peptide (Biotin-[…]-amide) to PPARG/RXRA LBD heterodimer. Specifically, a 20 microliters of TR-FRET master mix consisting of 2 nM WT PPARG LBD (E. coli expressed, His-TEV-Q203-Y477; Uniprot ID P37231-2), 2 nM WT RXRA LBD (E. coli expressed, Flag-TEV-E228-T462; […]. Mixtures were incubated for 3 hours and read in an EnVision plate reader (Perkin Elmer) with Ex/Em 615/665. To determine the potency (IC50) and extent of MED1 repulsion, TR-FRET ratios were normalized to the average ratio of DMSO control wells (0%) and to the average minimum ratio for positive control compound (GW9662 (2-chloro-5-nitrobenzanilide); defined as 100%) in CDD Vault and analyzed using the Levenberg-Marquardt algorithm.

For assay [3], the system named is ANGPTL4, a PPARG target gene, in HT1197 (RXRA S427F mutation) cells. In words: Bladder cancer pharmacodynamic assay, HT1197 cell assay (qPCR of ANGPTL4). In kind it is cell-based. The conditions noted are these: Homo sapiens, 24 hours, 100 nM compound, relative to DMSO control. As for the experimental part:
Bladder Cancer Pharmacodynamic Assay
5637 (PPARG amplified) and HT1197 (RXRA S427F mutation) cells were used for assessment of modulation of PPARG target genes using quantitative PCR. Cells were treated for 24 hours with PPARG inverse agonists prior to analysis of FABP4 (IDT, Cat: Hs.PT 58.20106818) and ANGPTL4 (IDT, Cat: Hs.PT 58.25480012) expression, with expression of the housekeeping gene TBP (IDT, Cat: Hs.PT 58v.39858774) used to normalize expression across samples. Quantitative PCR was performed using an ABI QuantStudio 7 Flex Reaction system. Data were analyzed and reported relative to DMSO control using the comparative Ct method (ΔΔCt).
In general terms: In qPCR the cycle at which signal appears reflects the starting amount.

Where only a bound is given, the exact number is not on record here.

The record followed here is patent US20240166624A1, “PPARG INVERSE AGONISTS AND USES THEREOF” (Flare Therapeutics Inc., priority 2021, published 2024).

In general, EC50 refers to the concentration at which the effect is half-maximal. One may read the inhibition as the share of the control response that was lost under treatment. Read a low inhibition as a weak effect.

In the case of `N#Cc1ccc(F)c(-c2cc(=O)c3c(F)cc(F)cc3[nH]2)c1` [Example 3, 3-(5,7-difluoro-4-oxo-1,4-dihydroquinolin-2-yl)-4-fluorobenzonitrile], the EC50 in assay [1] and in assay [2] was 1000 to 10000 nM each time.
In the case of `N#Cc1ccc(Cl)c(-c2cc(=O)c3c(Cl)cc(Cl)cc3[nH]2)c1` [Example 7, 4-chloro-3-(5,7-dichloro-4-oxo-1,4-dihydroquinolin-2-yl)benzonitrile], the EC50 in assay [1] and in assay [2] was 100 to 1000 nM throughout. This compound also yielded an inhibition at 0.1 µM in assay [3] of 90%.
`N#Cc1ccc(Cl)c(-c2cc(=O)c3cc(F)cc(F)c3[nH]2)c1` [Example 8, 4-chloro-3-(6,8-difluoro-4-oxo-1,4-dihydroquinolin-2-yl)benzonitrile]: the EC50 in assay [1] and in assay [2] was over 10000 nM in each case.
As to `Cc1cc2[nH]c(-c3cc(C#N)ccc3Cl)cc(=O)c2cc1C#N` [Example 9, 2-(2-chloro-5-cyanophenyl)-7-methyl-4-oxo-1,4-dihydroquinoline-6-carbonitrile], the concentration for a half-maximal effect (EC50) in assay [1] and in assay [2] was 1000 to 10000 nM each time.
For the compound `N#Cc1ccc(Cl)c(-c2cc(=O)c3c(F)c(F)ccc3[nH]2)c1` [Example 10, 4-chloro-3-(5,6-difluoro-4-oxo-1,4-dihydroquinolin-2-yl)benzonitrile], the concentration for a half-maximal effect (EC50) in assay [1] was over 10000 nM; in assay [2], 1000 to 10000 nM.
In the same order, the values of `N#Cc1ccc(Cl)c(-c2cc(=O)c3cc(C#N)c(C(F)(F)F)cc3[nH]2)c1` [Example 12, 2-(2-chloro-5-cyanophenyl)-4-oxo-7-(trifluoromethyl)-1,4-dihydroquinoline-6-carbonitrile] are over 10000 nM and 1000 to 10000 nM.
Regarding `N#Cc1ccc(Cl)c(-c2cc(=O)c3ccccc3[nH]2)c1` [Example 13, 4-chloro-3-(4-oxo-1,4-dihydroquinolin-2-yl)benzonitrile], the EC50 in assay [1] and in assay [2] was 1000 to 10000 nM each time. Moreover, at 0.1 µM the inhibition in assay [3] was 17%.
As for `O=c1cc(-c2cc([N+](=O)[O-])ccc2Cl)[nH]c2ccccc12` [Example 14, 2-(2-chloro-5-nitrophenyl)quinolin-4(1H)-one], the EC50 in assay [1] and in assay [2] was under 10 nM each time. In addition, the inhibition at 0.1 µM in assay [3] was found to be 38%.
Consider `Cc1c(F)cc2[nH]c(-c3cc(C#N)ccc3Cl)cc(=O)c2c1F` [Example 15, 4-chloro-3-(5,7-difluoro-6-methyl-4-oxo-1,4-dihydroquinolin-2-yl)benzonitrile], for which the EC50 in assay [1] lay in the range of 100 to 1000 nM; in assay [2], 10 to 100 nM. The inhibition at 0.1 µM in assay [3] was determined as 89%.
The matching figures for `N#Cc1ccc(Cl)c(-c2cc(=O)c3c(F)cc(Cl)cc3[nH]2)c1` [Example 16, 4-chloro-3-(7-chloro-5-fluoro-4-oxo-1,4-dihydroquinolin-2-yl)benzonitrile]: 100 to 1000 nM, 100 to 1000 nM and 88%.
Consider `N#Cc1ccc(Cl)c(-c2cc(=O)c3c(F)c(Br)c(F)cc3[nH]2)c1` [Example 33, 3-(6-bromo-5,7-difluoro-4-oxo-1,4-dihydroquinolin-2-yl)-4-chlorobenzonitrile], for which the EC50 in assay [1] and in assay [2] was 100 to 1000 nM in each case.
Turning to `N#Cc1ccc(Cl)c(-c2cc(=O)c3c(F)cc(C(F)(F)F)cc3[nH]2)c1` [Example 91, 4-chloro-3-(5-fluoro-4-oxo-7-(trifluoromethyl)-1,4-dihydroquinolin-2-yl)benzonitrile], the EC50 in assay [1] and in assay [2] was 100 to 1000 nM in each case.
`N#Cc1ccc(Cl)c(-c2[nH]c3cc(F)cc(F)c3c(=O)c2F)c1` [Example 118, 4-chloro-3-(3,5,7-trifluoro-4-oxo-1,4-dihydroquinolin-2-yl)benzonitrile]: the EC50 in assay [1] and in assay [2] was over 10000 nM each time.
Turning to `N#Cc1ccc(Cl)c(-c2[nH]c3cc(F)cc(F)c3c(=O)c2Cl)c1` [Example 119, 4-chloro-3-(3-chloro-5,7-difluoro-4-oxo-1,4-dihydroquinolin-2-yl)benzonitrile], the concentration giving a half-maximal response (EC50) in assay [1] and in assay [2] was over 10000 nM throughout.
